Consider seven compounds from US10213375B2, “Cosmetic or dermatological compositions combining cosmetiques retinaldehyde and glycylglycine oleamide and the cosmetic or dermatological uses thereof” (PIERRE FABRE DERMO-COSMETIQUE, priority 2013, dated 2019).

Where a SMILES comes first, the peptide text is derived from it.

In one assay the test system is keratinocytes A431. As to the kind of experiment: Modulation of retinylic esters induced by retinoids in keratinocytes (HPLC). Particulars: for Retinol / Retinylic esters: incubation 24 to 72 h, averaged values; for Total: retinol plus retinylic esters. Format: cell-based. The protocol:
The study was carried out on keratinocytes A431 in a culture. Indeed, in these cells, no endogenous retinoid was measured. A retinoid has to be applied beforehand in order to measure cell retinoids. The retinoids were measured by HPLC. The incubation in the presence of various agents or combination of agents dissolved in 1% of ethanol in the culture medium, was carried out for 24 to 72 h. These are averaged values expressed in pmol/mg of protein.

Assay [1] relates to CD44 and hyaluronate in follicular and interfollicular epidermis. To be noted: topical application, mice; cited from earlier work.
A further assay relates to epidermal retinoids. To be noted: hairless mice, topical 0.05% for 7 days, then UVB 1 J/cm^2, cited from earlier work; for Prevention of photo-induced depletion of epidermal retinylic esters / retinoids: assayed 24 h after radiation.
The target in another assay is T1, glucocerebrosidase (Homo sapiens, UniProt P04062).
T1 sequence (P04062 40-536): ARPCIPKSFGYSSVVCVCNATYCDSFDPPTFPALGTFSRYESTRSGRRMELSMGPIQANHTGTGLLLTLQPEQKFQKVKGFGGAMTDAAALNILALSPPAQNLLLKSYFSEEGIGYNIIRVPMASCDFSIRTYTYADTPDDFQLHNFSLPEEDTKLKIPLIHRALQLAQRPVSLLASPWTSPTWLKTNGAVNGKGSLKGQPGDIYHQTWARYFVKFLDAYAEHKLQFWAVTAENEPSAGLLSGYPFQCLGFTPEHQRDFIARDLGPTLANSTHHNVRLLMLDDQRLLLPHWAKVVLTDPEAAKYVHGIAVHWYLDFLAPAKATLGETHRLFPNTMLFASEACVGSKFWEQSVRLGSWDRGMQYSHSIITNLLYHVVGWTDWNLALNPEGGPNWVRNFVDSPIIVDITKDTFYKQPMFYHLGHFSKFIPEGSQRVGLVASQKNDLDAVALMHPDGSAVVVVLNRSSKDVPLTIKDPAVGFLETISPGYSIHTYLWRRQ
To be noted: compared with reference 4-methylumbelliferyl glucopyranoside; cited from earlier work.

With `NCC(=O)NCC(=O)O` [GG, glycylglycine] (H-Gly-Gly-OH), in the assay on keratinocytes A431 (agent 15 μM in 1% ethanol), the Retinol was <10 pmol/mg of protein and the Retinylic esters is given as <10 pmol/mg of protein. Moreover, in the assay on keratinocytes A431 (agent 15 μM), the Total is <10 pmol/mg of protein.
For the compound `CCCCCCCC/C=C\CCCCCCCC(=O)O` [OA, oleic acid], in the assay with keratinocytes A431 (agent 15 μM in 1% ethanol), the Retinol is <10 pmol/mg of protein and the Retinylic esters is <10 pmol/mg of protein. In the assay with keratinocytes A431 (agent 15 μM), the Total is <10 pmol/mg of protein.
With `CC1=C(/C=C/C(C)=C/C=C/C(C)=C/C=O)C(C)(C)CCC1` [RAL, retinaldehyde], in assay [1], the Epidermal hyperplasia result was “inducing epidermal hyperplasia”; the “Expression of CD44 and of hyaluronate versus retinoic acid and retinol” value is given as “more strongly increased”. Also, in the assay on epidermal retinoids, the “Prevention of photo-induced depletion of epidermal retinylic esters / retinoids” value is “prevent photo-induced depletion of epidermal retinylic esters” and the “Profile in the study of photo-induced depletion of retinoids” value was “best profile”. For the same compound, the “Induction / modulation of retinylic esters and cell retinoids in keratinocytes (in words)” value (from here on “Induction / modulation”) in the assay on keratinocytes A431 is on record as “induces a series of retinylic esters”. Moreover, in the assay with keratinocytes A431 (agent 2 μM in 1% ethanol), the Retinol is 865 pmol/mg of protein and the Retinylic esters is given as 280 pmol/mg of protein. Also, the Total with keratinocytes A431 (agent 2 μM) is 1145 pmol/mg of protein.
Regarding `CCCCCCCCCCCCCCCC(=O)OC/C=C(C)/C=C/C=C(C)/C=C/C1=C(C)CCCC1(C)C` [ROL-Pal, retinyl palmitate], the “Induction / modulation” value in the assay on keratinocytes A431 was “less cell retinoids than retinaldehyde”. In the assay on keratinocytes A431 (agent 15 μM in 1% ethanol), the Retinol was 389 pmol/mg of protein and the Retinylic esters is 178 pmol/mg of protein. Besides, the Total with keratinocytes A431 (agent 15 μM) was 567 pmol/mg of protein.
As for `Cc1cc(O[C@@H]2O[C@H](CO)[C@@H](O)[C@H](O)[C@H]2O)cc2c1O[C@](C)(CCC[C@H](C)CCC[C@H](C)CCCC(C)C)CC2` [delta-tocopherol-glucopyranoside], the “Release of delta-tocopherol on enzymatic hydrolysis” value at glucocerebrosidase is “slowly releases delta-tocopherol”.
`CC1=C(/C=C/C(C)=C/C=C/C(C)=C/CO)C(C)(C)CCC1` [retinol, reference compound]: the “Prevention of photo-induced depletion of epidermal retinylic esters / retinoids” value in the assay with epidermal retinoids is given as “prevent photo-induced depletion of epidermal retinylic esters”.
glycylglycine oleamide [OGG]: the “Induction / modulation” value with keratinocytes A431 was “significantly increased”. Also, in the assay on keratinocytes A431 (agent 15 μM in 1% ethanol), the Retinol is listed as <10 pmol/mg of protein and the Retinylic esters is recorded as <10 pmol/mg of protein. The Total with keratinocytes A431 (agent 15 μM) is on record as <10 pmol/mg of protein.
